From patent publication US8506950B2, “Degradable microcapsules” (ETH Zurich, priority 2008, dated 2013)

Test system: PhCMV*-1 and PETR driven SecCell expression
Experiment: Transient expression of SecCell under antibiotic-responsive promoters in mammalian cells
Format: cell-based, human, hamster
Conditions: HEK293-T, HeLa, HT-1080, CHO-K1, BHK-21, transient transfection
Text: (B) Transient expression of cellulase in HEK293-T, HeLa, HT-1080, BHK-21 and CHO-K1 cells. Cellulase was either driven by a constitutive (PhCMV) or antibiotic-responsive promoters (PhCMV*-1 and PETR).
The Bacillus subtilis endo (1-4)-beta-glucanase was PCR-amplified from genomic DNA and fused to a strong mammalian secretion signal sequence derived from the murine Igk-chain V-12-C region. The secreted cellulase (SecCell) was cloned downstream of a constitutive promoter (PhCMV) as well as two different inducible promoters which enabled doxycycline-(PhCMV*-1) and erythromycin-(PETR) adjustable transgene expression (FIG. 1A).
Cellulase was quantified using EnzCheck® fluorescent substrate (Molecular Probes, Eugene, Oreg., USA) according to the manufacturer's protocol: 20 μl of cell culture supernatant was centrifuged at 16,000×g for one minute to remove cell debris and 15 μl of appropriate dilutions in PBS (Invitrogen, cat. no. 21600-069) were transferred to a 384-well plate containing 15 μl sodium acetate buffer (200 mM sodium acetate, pH 5.5) per well supplemented with 3 μl substrate solution. Plates were incubated at 37° C. for 30 minutes and fluorescence intensity was measured subsequently at 340 nm (excitation wavelength) and 450 nm (emission wavelength) in a Genios Pro multiwell plate reader (Tecan A G, Maennedorf, Switzerland). […]

## CC[C@H]1OC(=O)[C@H](C)[C@@H](O[C@H]2C[C@@](C)(OC)[C@@H](O)[C@H](C)O2)[C@H](C)[C@@H](O[C@@H]2O[C@H](C)C[C@H](N(C)C)[C@H]2O)[C@](C)(O)C[C@@H](C)C(=O)[C@H](C)[C@@H](O)[C@]1(C)O [EM, erythromycin]
  SecCell production (cellulase activity in the culture supernatants): repressed
